# Measured values published in patent publication US6245817A, “NPY5 receptor antagonists and methods for using same” (Bayer Corporation, priority 1999, dated 2001).
# How the values were obtained:
# [1] = molecular target: T1, Human NPY1 Receptor (Homo sapiens, UniProt P25929); assay: Human NPY1 Receptor Binding Assay; details: SK-N-MC cells, [125I]PYY; read-out: hNPY1 IC50
# T1 sequence (P25929 1-384): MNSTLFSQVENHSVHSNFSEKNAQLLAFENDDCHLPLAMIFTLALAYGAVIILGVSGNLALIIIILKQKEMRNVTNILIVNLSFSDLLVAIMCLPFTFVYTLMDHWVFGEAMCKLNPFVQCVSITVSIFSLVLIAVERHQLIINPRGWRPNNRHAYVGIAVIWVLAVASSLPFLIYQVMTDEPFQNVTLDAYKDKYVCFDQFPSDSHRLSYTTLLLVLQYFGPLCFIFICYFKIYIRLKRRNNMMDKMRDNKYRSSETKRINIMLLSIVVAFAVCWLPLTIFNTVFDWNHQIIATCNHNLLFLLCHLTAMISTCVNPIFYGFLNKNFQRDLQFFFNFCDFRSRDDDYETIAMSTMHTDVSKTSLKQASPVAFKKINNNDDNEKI
# [2] = molecular target: Human NPY4/PP1 receptor (Homo sapiens, UniProt P50391); assay: Human NPY4/PP1 Receptor Binding Assay; details: [125I]human PP; read-out: hNPY4 IC50
# [3] = molecular target: T2, Rat NPY5 Receptor (Rattus norvegicus, UniProt Q63634); assay: Rat NPY5 Receptor Binding Assay; details: for inhibition at 10 µM: values marked *, read-out: rNPY5 percent inhibition at 10 μM; for IC50: [125I]PYY, read-out: rNPY5 IC50
# T2 sequence (Q63634 1-445): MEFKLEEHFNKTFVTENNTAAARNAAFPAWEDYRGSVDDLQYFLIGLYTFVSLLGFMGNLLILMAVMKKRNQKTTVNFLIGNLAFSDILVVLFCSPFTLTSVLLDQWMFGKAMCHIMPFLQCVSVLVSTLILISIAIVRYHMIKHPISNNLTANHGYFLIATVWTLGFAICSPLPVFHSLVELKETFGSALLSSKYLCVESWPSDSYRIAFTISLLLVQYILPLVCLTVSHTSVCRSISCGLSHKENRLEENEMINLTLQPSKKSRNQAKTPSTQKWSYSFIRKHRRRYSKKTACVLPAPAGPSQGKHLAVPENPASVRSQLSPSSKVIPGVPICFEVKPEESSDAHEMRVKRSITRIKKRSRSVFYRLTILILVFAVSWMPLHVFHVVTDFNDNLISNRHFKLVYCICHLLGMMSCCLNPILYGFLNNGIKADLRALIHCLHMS
# [4] = molecular target: T3, Human NPY5 Receptor (Homo sapiens, UniProt Q15761); assay: Human NPY5 Receptor Binding Assay; details: [125I]PYY; read-out: hNPY5 IC50
# T3 sequence (Q15761 1-445): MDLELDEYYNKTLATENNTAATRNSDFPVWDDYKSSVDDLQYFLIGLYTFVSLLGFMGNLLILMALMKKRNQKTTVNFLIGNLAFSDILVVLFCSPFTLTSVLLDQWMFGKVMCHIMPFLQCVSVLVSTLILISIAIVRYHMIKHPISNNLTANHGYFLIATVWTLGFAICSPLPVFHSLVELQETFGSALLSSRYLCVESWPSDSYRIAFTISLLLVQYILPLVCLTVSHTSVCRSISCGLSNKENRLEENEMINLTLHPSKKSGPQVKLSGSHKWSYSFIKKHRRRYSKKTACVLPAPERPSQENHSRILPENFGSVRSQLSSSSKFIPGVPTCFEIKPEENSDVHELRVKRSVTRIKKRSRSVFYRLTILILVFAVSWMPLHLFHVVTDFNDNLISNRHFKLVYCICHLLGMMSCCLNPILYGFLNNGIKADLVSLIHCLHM
# Method: Human and Rat NPY5 Receptor Binding Assays
# Binding assays are performed on GF/C Millipore 96-well plates pretreated with 0.02% polyethylenimine. The binding buffer is 25 mM Tris, 120 mM NaCl, 5 mM KCl, 1.2 mM KH2 PO4, 2.5 mM CaCl2, 1.2 mM MgSO4, 0.1% BSA and 0.5 mg/ml bacitracin, pH 7.4. Samples consist of membrane protein, 75-100 pM [125I]PYY (porcine, NEN-DuPont) and drug dilution. Nonspecific binding is defined by 1 μM PYY. After a 2 hour incubation at room temperature with constant mixing, the samples are aspirated on a vacuum manifold, and rinsed with ice-cold binding buffer. The amount of radioactivity in each well is quantitated with either gamma counting or liquid scintillation. IC50 values, which correspond to 50% inhibition of specific binding, are determined with non-linear regression analysis.
# [5] = molecular target: T4, Human NPY2 receptor (Homo sapiens, UniProt P49146); assay: Human NPY2 Receptor Binding Assay; details: [125I]PYY; read-out: hPPY2 IC50
# T4 sequence (P49146 1-381): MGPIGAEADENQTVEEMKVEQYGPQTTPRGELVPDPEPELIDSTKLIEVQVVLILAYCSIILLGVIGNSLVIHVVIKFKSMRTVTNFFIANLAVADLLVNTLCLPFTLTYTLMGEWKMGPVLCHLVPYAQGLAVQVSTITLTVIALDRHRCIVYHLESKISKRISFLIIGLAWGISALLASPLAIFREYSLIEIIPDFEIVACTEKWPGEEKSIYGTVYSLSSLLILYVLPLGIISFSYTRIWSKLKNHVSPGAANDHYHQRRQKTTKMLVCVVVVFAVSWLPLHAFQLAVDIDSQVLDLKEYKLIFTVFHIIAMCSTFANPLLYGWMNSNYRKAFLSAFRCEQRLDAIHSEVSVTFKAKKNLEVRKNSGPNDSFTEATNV
# Human NPY4/PP1 receptor, sequence (P50391 whole entry): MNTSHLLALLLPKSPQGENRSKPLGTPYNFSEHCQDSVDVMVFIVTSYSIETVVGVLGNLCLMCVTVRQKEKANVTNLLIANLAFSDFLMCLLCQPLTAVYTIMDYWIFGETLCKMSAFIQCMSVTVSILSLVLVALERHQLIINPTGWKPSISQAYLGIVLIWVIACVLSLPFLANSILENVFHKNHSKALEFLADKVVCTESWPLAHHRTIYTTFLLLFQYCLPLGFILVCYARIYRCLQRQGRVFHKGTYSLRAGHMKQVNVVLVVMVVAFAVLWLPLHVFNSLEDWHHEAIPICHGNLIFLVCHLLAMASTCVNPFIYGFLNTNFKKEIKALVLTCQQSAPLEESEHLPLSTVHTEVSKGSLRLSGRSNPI
Compound,IC50 [1],IC50 [2],inhibition at 10 µM [3],IC50 [4],IC50 [5],IC50 [3]
"Cc1ccccc1NC(=O)CCC(Oc1ccccc1)C(=O)Nc1ccccc1C (centres unmarked) [Compound 6, 2-Phenoxy-pentanedioic acid bis-o-tolylamide]",> 5 µM,> 5 µM,,0.16 µM,> 5 µM,0.18 µM
"Cn1ccnc1SCC(=O)Nc1ccc(Cl)cc1 [Compound 139, N-(4-Chloro-phenyl)-2-(1-methyl-1H-imidazoI-2-ylsulfanyl)-acetamide, reference compound]",> 5 µM,> 5 µM,,> 10 µM,> 5 µM,> 10 µM
"CCn1c(SCC(=O)Nc2ccc(Cl)cc2)nc2ccccc21 [Compound 140, N-(4-Chloro-phenyl)-2-(1-ethyl-1H-berzoimidazol-2-ylsulfanyl)-acetamide, reference compound]",> 5 µM,> 5 µM,61%,> 10 µM,> 5 µM,
"CC(C)c1ccc(NC(=O)CSc2n[nH]c(=O)n2-c2cccc(F)c2)cc1 [Compound 141, reference compound]",> 5 µM,> 5 µM,,3 µM,> 5 µM,3 µM
"Cn1c(CC2Sc3ccccc3NC2=O)nnc1SCC(=O)Nc1ccc(Cl)cc1 (centres unmarked) [Compound 167, reference compound]",> 5 µM,> 5 µM,,> 10 µM,,> 10 µM
"Cn1c(Cc2ccsc2)nnc1SCC(=O)Nc1ccc(Cl)cc1 [Compound 168, N-(4-Chloro-phenyl)-2-(4-methyl-5-thiophen-3-ylmethyl-4H-[1,2,4]triazol-3-ylsulfanyl)-acetamide, reference compound]",> 5 µM,> 5 µM,,> 10 µM,,> 10 µM
"CCC(C)c1ccc(NC(=O)CSc2nncn2C)cc1 (centres unmarked) [Compound 172, reference compound]",> 5 µM,> 5 µM,,2.3 µM,,2 µM
"Cc1ccc(NC(=O)CSc2nncn2C)cc1 [Compound 174, 2-(4-Methyl-4H-[1,2,4]triazol-3-ylsulfanyl)-N-p-tolyl-acetamide, reference compound]",> 5 µM,> 5 µM,,> 10 µM,,> 10 µM
"Cn1c(Cn2cc(C(F)(F)F)ccc2=O)nnc1SCC(=O)Nc1ccc(Cl)cc1 [Compound 175, N-(4-Chloro-phenyl)-2-[4-methyl-5-(2-oxo-5-trifluoromethyl-2H-pyridin-1-ylmethyl)-4H-[1,2,4]triazol-3-ylsulfanyl]-acetamide, reference compound]",> 5 µM,> 5 µM,,7 µM,> 5 µM,
"CC(C)c1ccc(NC(=O)CSc2nnc(Cn3cc(C(F)(F)F)ccc3=O)n2C)cc1 [Compound 176, N-(4-isopropyl-phenyl)-2-[4-methyl-5-(2-oxo-5-trifluoromethyl-2H-yridin-1-ylmethyl)-4H-[1,2,4]triazol-3-ylsulfanyl]-acetamide, reference compound]",> 5 µM,> 5 µM,,3 µM,> 5 µM,

# Now from value to molecule:
IC50 [1],IC50 [2],inhibition at 10 µM [3],IC50 [4],IC50 [5],IC50 [3],Compound
> 5 µM,> 5 µM,95%,0.64 µM,> 10 µM,,"Cn1ccnc1SCC(=O)Nc1ccc(-c2ccccc2)cc1 [Compound 1, N-Biphenyl-4yl-2-(1-methyl-1H-imidazol-2-ylsulfanyl)-acetamide]"
> 5 µM,> 5 µM,,> 10 µM,> 5 µM,> 10 µM,"Cc1cc(-c2nnc(SCC(=O)Nc3ccc(C(F)(F)F)cc3)n2C)no1 [Compound 2, 2-[4-Methyl-5-(5-methyl-isoxazol-3-yl)-4H-[1,2,4]triazol-3-ylsultanyl]-N-(4-trifluoro-methyl-phenyl)-acetamide]"
> 5 µM,> 5 µM,,,> 5 µM,0.36 µM,"O=C(CSc1ncc[nH]1)Nc1ccc(C(=O)c2ccccc2)cc1 [Compound 4, N-(4-Benzoyl-phenyl)-2-(1H-imidazol-2-ylsultanyl)-acetamide]"
> 5 µM,> 5 µM,,1.6 µM,> 5 µM,0.44 µM,"O=C(CCC(Sc1ccccc1)C(=O)Nc1ccccc1)Nc1ccccc1 (centres unmarked) [Compound 7, 2-Phenylsulfanyl-pentanedioic acid bis-phenylamide]"
> 5 µM,> 5 µM,,> 10 µM,> 5 µM,> 10 µM,"Cc1cc(C)n2nc(SCC(=O)Nc3ccc(Cl)cc3)nc2n1 [Compound 137, reference compound]"
> 5 µM,> 5 µM,52%,> 10 µM,> 5 µM,,"Cc1nc(-c2nnc(SCC(=O)Nc3ccc(Cl)cc3)n2C)cs1 [Compound 138, N-(4-Chloro-phenyl)-2-(4-methyl-5-(2-methyl-thiazolo-yl)-4H-[1,2,4]triazol-3-ylsulfanyl]-acetamide, reference compound]"
> 5 µM,> 5 µM,,> 10 µM,> 5 µM,> 10 µM,"CSc1ncc(-c2nnc(SCC(=O)Nc3ccc(Cl)cc3)n2C)n1C [Compound 142, N-(4-Chloro-phenyl)-2-(4-methyl-5-(3-methyl-2-methylsulfanyl-3H-imidazol-4-yl)-4H-[1,2,4]triazol-3-ylsulfanyl]-acetamide, reference compound]"
> 5 µM,> 5 µM,,> 10 µM,,> 10 µM,"COC(Cn1c(SCC(=O)Nc2ccc(C(C)C)cc2)nnc1-c1ccc(Cl)cc1)OC [Compound 166, 2-[5-(4-Chloro-phenyl)-4-(2,2-dimethoxy-ethyl)-4H-[1,2,4]triazol-3-ylsulfanyl]-N-(4-isopropyl-phenyl)-acetamide, reference compound]"
> 5 µM,> 5 µM,,> 10 µM,,> 10 µM,"Cc1cc(-c2nc(C)c(-c3nnc(SCC(=O)Nc4ccc(Cl)cc4)n3C)s2)no1 [Compound 169, reference compound]"
> 5 µM,> 5 µM,,> 10 µM,,> 10 µM,"Cn1cnnc1SCC(=O)Nc1ccc(F)cc1 [Compound 170, N-(4-Fluoro-phenyl)-2-(4-methyl-4H-[1,2,4]triazol-3-ylsulfanyl)-acetamide, reference compound]"
> 5 µM,> 5 µM,,0.553 µM,,0.525 µM,"CCC(C)c1ccc(NC(=O)CSc2nnnn2C)cc1 (centres unmarked) [Compound 171, N-(4-sec-Butyl-phenyl)-2-(1-methyl-1H-tetrazol-5-ylsulfanyl)-acetamide, reference compound]"
> 5 µM,> 5 µM,,0.08 µM,,0.073 µM,"Cn1cnnc1SCC(=O)Nc1ccc(C2CCCCC2)cc1 [Compound 173, N-(4-Cyclohexyl-phenyl)-2-(4-methyl-4H-[1,2,4]triazol-3-ylsulfanyl)-acetamide, reference compound]"
